This is an account of results in PubChem BioAssay (NCI).

What all share (assay): growth of human tumour cells (NCI), 48 h
Assay [1] concerns 786-0 renal.
Assay [2] has as its system EKVX NSCLC.
The test system of assay [3] is HT29 colon.
Assay [4] relates to MALME-3M melanoma.
Assay [5] relates to MDA-MB-435.
In assay [6] the test system is NCI-H226 lung.
In assay [7] the test system is NCI/ADR-RES ovarian.
The subject of assay [8] is TK-10 renal.
Assay [9] concerns UACC-257 melanoma.
Assay [10] deals with UACC-62 melanoma.

Several values for one entry are separate records, joined by “and”; a condition that tells them apart may be missing. Equal values may be shown once.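 Five compound concentrations were applied to cells in 96-well plates for 48 hours; endpoints were derived by simple linear interpolation of the resulting dose-response curve. GI50 = concentration required for 50% inhibition of growth. TGI marks complete inhibition of growth.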 Where only a bound is given, the exact number is not on record here.

Regarding `Cc1cc(O)c(=O)cc2c1C[C@H]1CC(C)(C)/C=C/C[C@]3(C)Oc4cc(=O)c(O)cc(C)c4C[C@H]3C[C@H](O)[C@@]1(C)O2`, the GI50 is 0.0327 µM in assay [1]; 0.0172 µM in assay [2]; less than 0.01 µM in assay [3]; 0.0282 µM in assay [4]; less than 0.017 µM in assay [5]; 0.0541 µM in assay [6]. Further, the GI50 in assay [7] is less than 0.01 µM; in assay [8], 0.0211 µM; in assay [9], 0.0215 µM; in [10] it was 0.0296 µM. Further, the TGI in [1] is 15.4 µM; in assay [2], more than 46.2 µM; in assay [3], more than 100 µM; in [4], 0.544 µM; in [6], 13.6 µM; in assay [8], 9.95 µM. For the same compound, the TGI was determined as 0.0895 µM in assay [9] and 0.157 µM in [10].
Take `OCCN1CCN(CCCN2c3ccccc3Sc3ccc(Cl)cc32)CC1`: the GI50 is 1.87 µM in [1]; 3.43 µM in assay [2]; 1.73 µM in [3]; 1.79 µM in assay [4]; 1.72 µM in [5]; 5.26 µM in [6]. Moreover, the GI50 is 2.72 µM in assay [7], 1.65 µM in [8], 1.66 µM in assay [9] and 1.76 µM in [10]. The TGI in assay [1] came to 3.98 µM; in assay [2], 17.7 µM; in assay [3] it was 3.42 µM; in assay [4] it was 3.59 µM; in [5] it was 3.33 µM; in assay [6] it was 19.2 µM. Moreover, the TGI in assay [7] was found to be 9.91 µM; in [8] it was 3.08 µM; in [9], 3.36 µM; in assay [10] it was 3.29 µM.
Turning to `CN(c1ncccc1CNc1nc(Nc2ccc3c(c2)CC(=O)N3)ncc1C(F)(F)F)S(C)(=O)=O`, the GI50 in assay [1] is 3.02 µM and 2.51 µM; in assay [2] it was 1.84 µM and 2.64 µM; in assay [3] it was 1.75 µM and 2.33 µM; in [4] it was 2.98 µM and 2.89 µM; in assay [5], 1.46 µM and 2.74 µM; in [6], 2.38 µM and 2.25 µM. The GI50 in assay [7] was 13 µM; in assay [8] it was 1.87 µM and 1.75 µM; in [9], 1.6 µM and 2.24 µM; in [10], 1.4 µM. The TGI in assay [1] was more than 83.8 µM; in assay [2], 8.23 µM and > 10 µM; in assay [3], 4.79 µM and 8.54 µM; in [4] it was 10.2 µM and > 10 µM; in assay [5], 11.4 µM and > 10 µM; in assay [6], 7.97 µM and > 10 µM. The TGI in [7] was more than 85.8 µM; in assay [8] it was 7.82 µM and > 10 µM; in [9], 5.54 µM and 8.76 µM; in assay [10], 3.62 µM.
In the case of `O=S(=O)(NCCCNc1nccc(-c2c(-c3ccc(O)cc3)nc3sccn23)n1)c1ccc(F)cc1`, the GI50 was 3.22 µM in assay [1]; 2.91 µM in [2]; 1.52 µM in assay [3]; 0.0391 µM in assay [4]; 0.245 µM in assay [5]; 2.15 µM in assay [6]. The GI50 is 4.59 µM in [7], 4.48 µM in assay [8], 0.134 µM in [9] and 0.0245 µM in assay [10]. Also, the TGI in assay [1] is more than 100 µM; in assay [2], 9.02 µM; in assay [3], 17.2 µM; in assay [4], 3.56 µM; in assay [5], 4.76 µM; in assay [6] it was 10.1 µM. For the same compound, the TGI is more than 100 µM in [7], 32.2 µM in assay [8], 2.36 µM in assay [9] and 1.33 µM in assay [10].
On to `CCN(CC)c1ccc(/C=N/NC(=O)CSc2nc3ccccc3c(=O)n2CCc2ccc(S(N)(=O)=O)cc2)c(O)c1`, for which the GI50 in assay [1] is 4.46 µM; in assay [2] it was 1.42 µM; in [3], 8.93 µM; in assay [4], 3.26 µM; in assay [5], 3.89 µM; in [6], 1.34 µM. Further, the GI50 in assay [7] is more than 100 µM; in assay [8], 5.71 µM; in assay [9], 3.25 µM; in [10], 1.73 µM. Also, the TGI in assay [1], in assay [2], in assay [3], in [4], in assay [5] and in [6] was more than 100 µM throughout. Moreover, the TGI is more than 100 µM in assay [7], more than 100 µM in [8], 69.1 µM in assay [9] and 6.37 µM in [10].
On to `COc1cc(C2Cc3ncccc3-c3[nH]c(=O)c4cccnc4c32)cc(OC)c1OC` (stereo not drawn), for which the GI50 in [1] is 1.41 µM; in assay [2], 3.21 µM; in assay [3] it was 0.347 µM; in [4] it was more than 100 µM; in assay [5], 0.0554 µM; in assay [6] it was more than 74.7 µM. Also, the GI50 in [7] is 2.16 µM; in assay [8], more than 100 µM; in [9] it was more than 100 µM; in assay [10], 0.463 µM. The TGI in [1] was more than 100 µM; in [2], more than 100 µM; in assay [3], more than 100 µM; in assay [4], more than 100 µM; in [5] it was 0.428 µM; in assay [6] it was more than 100 µM. Also, the TGI in [7], in assay [8], in [9] and in assay [10] was more than 100 µM each time.
As to `O=c1c2c(=NCCN3CCCC3)cc3c(=O)n(CCCN4CCOCC4)c(=O)c4c(-c5ccc(CN6CCCC6)cc5)cc(c(O)n1CCCN1CCOCC1)c2c4-3`, the GI50 is 0.0416 µM in assay [1]; 0.0828 µM in [2]; less than 0.0115 µM in [3]; 0.105 µM in assay [4]; 0.0395 µM in [5]; 0.0523 µM in assay [6]. Moreover, the GI50 in [7] was 0.364 µM; in assay [8], 0.0329 µM; in [9], 0.194 µM; in assay [10] it was 0.08 µM. Moreover, the TGI was determined as 0.383 µM in assay [1]; 0.484 µM in assay [2]; 0.413 µM in assay [3]; 0.388 µM in [4]; 0.147 µM in assay [5]; 0.49 µM in [6]. Further, the TGI in assay [7] turned out to be 9.65 µM; in [8], 0.84 µM; in [9] it was 1.33 µM; in [10] it was 0.239 µM.
`NS(=O)(=O)c1ccc(Nc2cc(-c3cccc(O)c3)[nH]n2)cc1`: the GI50 in assay [1], in [2], in assay [3], in assay [4], in assay [5] and in assay [6] was more than 25 µM each time. For the same compound, the GI50 is more than 25 µM in [7], more than 25 µM in assay [8], more than 25 µM in assay [9] and more than 24.2 µM in assay [10]. Besides, the TGI in [1], in assay [2], in assay [3], in assay [4], in [5] and in assay [6] was more than 25 µM each time. Besides, the TGI in assay [7], in assay [8], in [9] and in [10] was more than 25 µM each time.
As for `CC(C)c1[nH]nc(C(N)=O)c1N=NN(C)C`, the TGI in assay [1] is more than 100 µM; in assay [2], more than 100 µM; in assay [3], more than 100 µM; in assay [4], more than 100 µM; in assay [5], more than 100 µM; in assay [6], 71.6 µM. Besides, the TGI in assay [7], in assay [8], in [9] and in [10] was more than 100 µM in each case.
